Results as given in patent publication US7071215B2 (Pharmacia & Upjohn Company LLC, priority 2002, dated 2006).

Experiment: binding assay as described in U.S. Pat. No. 5,859,188 (Geary, et al., 1999): displacement of a radiolabelled ligand
Conditions: percent displacement of a radiolabelled ligand at 25 micromolar
Experimental: Selected compounds were evaluated for their anti-parasitic activity in a binding assay as described in U.S. Pat. No. 5,859,188 (Geary, et al., 1999). Results of the evaluations are given in Table 2 wherein “% Inhibition” means percent displacement of a radiolabelled ligand at 25 micromolar as described.

| SMILES | % Inhibition |
| --- | --- |
| O=C(CN1CCCCC1)Nc1sc2c(c1C(=O)c1ccc(Cl)cc1)CCOC2 [Compound 1, N-[3-(4-chlorobenzoyl)-4,7-dihydro-5H-thieno[2,3-c]pyran-2-yl]-2-piperidin-1-ylacetamide] | 93–99% |
| O=C(CN1CCCCC1)Nc1sc2c(c1C(O)c1ccc(Cl)cc1)CCOC2 (stereo not shown) [Compound 2, N-{3-[(4-chlorophenyl)(hydroxy)methyl]-4,7-dihydro-5H-thieno[2,3-c]pyran-2-yl}-2-piperidin-1-ylacetamide] | 85–95% |
| O=C(CN1CCCC(O)C1)Nc1sc2c(c1C(=O)c1ccc(Cl)cc1)CCOC2 (stereo not shown) [Compound 3, N-[3-(4-chlorobenzoyl)-4,7-dihydro-5H-thieno[2,3-c]pyran-2-yl]-2-(3-hydroxypiperidin-1-yl)acetamide] | 96–97% |
| O=C(CN1CCCC(O)C1)Nc1sc2c(c1C(O)c1ccc(Cl)cc1)CCOC2 (stereo not shown) [Compound 4, N-{3-[(4-chlorophenyl)(hydroxy)methyl]-4,7-dihydro-5H-thieno[2,3-c]pyran-2-yl}-2-(3-hydroxypiperidin-1-yl)acetamide] | 72–84% |
| O=C(CN1CCCC(O)C1)Nc1sc2c(c1C(=O)c1ccco1)CCSC2 (stereo not shown) [Compound 10] | 21–38% |
| O=C(CN1CCCC(O)C1)Nc1sc2c(c1C(O)c1ccc(Cl)cc1)CCSC2 (stereo not shown) [Compound 20] | 86–88% |
| O=C(CN1CCCCCC1)Nc1sc2c(c1C(O)c1ccc(Cl)cc1)CCSC2 (stereo not shown) [Compound 24] | 11–58% |
| Cc1ccc(C(=O)c2c(NC(=O)CN3CCCC(O)C3)sc3c2CCSC3)cc1 (stereo not shown) [Compound 28] | 11–79% |
| O=C(CN1CCCC(O)C1)Nc1sc2c(c1C(=O)c1cccc(C(F)(F)F)c1)CCSC2 (stereo not shown) [Compound 33] | 92–94% |
| O=C(CN1CCCCC1)Nc1sc2c(c1C(=O)c1cccs1)CCSC2 [Compound 37] | 0–66% |
| Cc1ccc(C(O)c2c(NC(=O)CN3CCCC(O)C3)sc3c2CCSC3)cc1 (stereo not shown) [Compound 40] | 100% |
| O=C(CN1CCCC(O)C1)Nc1sc2c(c1C(O)c1cccs1)CCSC2 (stereo not shown) [Compound 49] | 46–55% |
| O=C(CN1CCCC(O)C1)Nc1sc2c(c1C(=O)c1ccc(F)cc1)CCSC2 (stereo not shown) [Compound 53] | 19–20% |
| O=C(CN1CCCC(O)C1)Nc1sc2c(c1C(O)c1ccc(F)cc1)CCSC2 (stereo not shown) [Compound 54] | 93–97% |
| O=C(CN1CCCC(O)C1)Nc1sc2c(c1C(=O)c1ccc(F)c(F)c1)CCSC2 (stereo not shown) [Compound 55] | 100% |
| O=C(CN1CCCCC1)Nc1sc2c(c1C(=O)c1cccc(F)c1)CCSC2 [Compound 56] | 99–100% |
